Data from ChEMBL document CHEMBL1138946, “Toward stable N4-modified neurotensins for NTS1-receptor-targeted tumor imaging with 99mTc” (J Med Chem, 2006).
pIC50: −log10 of the molar value. Starred links: 1 amine or outer side, 2 acyl side, 3 side chain; linkers in the order of their positions; H or OH if unused. Non-standard residues stand in square brackets, D forms with d. Residues, ends and D or L forms follow the SMILES beside them. Groups on a side chain read outwards from the residue. *: point of attachment. X1 = NC(N)=NCCCC(CN([C@@H](CCCN=C(N)N)C(=O)[*:2])[*:1])N[*:3]; X3 = NCCCCC(CN([C@@H](CCCN=C(N)N)C(=O)[*:2])[*:1])N[*:3]; Tle = CC(C)(C)[C@H](N)C(=O)O; X2 = NCCNCC(CNCCN)C(=O)*

Assays:
[1] = target: T1, Neurotensin receptor type 1 (Homo sapiens, UniProt P30989); test: Displacement of [125I]Tyr3-NT from human NTS1R expressed in HT29 cells; assay type: cell-based, HT-29
[2] = target: T1, Neurotensin receptor type 1; test: Displacement of [125I]Tyr3-NT from human NTS1R expressed in WiDr cells; assay type: cell-based
[3] = target: T1, Neurotensin receptor type 1; test: Displacement of [125I]Tyr3-NT from NTS1R in human exocrine ductal pancreatic carcinoma

T1 sequence (P30989 whole entry): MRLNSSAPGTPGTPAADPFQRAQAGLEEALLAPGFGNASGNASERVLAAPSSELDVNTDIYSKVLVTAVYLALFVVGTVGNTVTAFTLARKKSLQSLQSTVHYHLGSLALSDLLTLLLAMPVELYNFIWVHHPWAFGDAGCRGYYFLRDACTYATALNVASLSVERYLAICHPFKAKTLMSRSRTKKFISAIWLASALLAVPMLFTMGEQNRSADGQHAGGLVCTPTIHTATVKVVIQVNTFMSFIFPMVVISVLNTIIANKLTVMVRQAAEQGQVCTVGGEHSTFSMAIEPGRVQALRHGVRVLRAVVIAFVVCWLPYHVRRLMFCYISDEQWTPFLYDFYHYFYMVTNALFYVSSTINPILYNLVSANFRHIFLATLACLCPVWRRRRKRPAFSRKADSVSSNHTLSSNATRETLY

With `CC[C@H](C)[C@H](NC(=O)[C@H](Cc1ccc(O)cc1)NC(=O)[C@@H]1CCCN1C(=O)[C@H](CCCN=C(N)N)NC(=O)[C@H](CCCN=C(N)N)NC(=O)CNC(=O)C(CNCCN)CNCCN)C(=O)N[C@@H](CC(C)C)C(=O)O` [Demotensin 1] (X2-GRRPYIL-OH) the pIC50 [1] was 9.49.
In the case of `CC(C)C[C@H](NC(=O)[C@@H](NC(=O)[C@H](Cc1ccc(O)cc1)NC(=O)[C@@H]1CCCN1C(=O)[C@H](CCCN=C(N)N)NCC(CCCCN)NC(=O)CNC(=O)C(CNCCN)CNCCN)C(C)(C)C)C(=O)O` (stereo partly drawn) [DEMOTENSIN 3] (H-[X3]([Gly-X2])PY[Tle]L-OH), the pIC50 [2] was 9.18 and the pIC50 [1] was 8.82.
Molecule `CC[C@H](C)[C@H](NC(=O)[C@H](Cc1ccc(O)cc1)NC(=O)[C@@H]1CCCN1C(=O)[C@H](CCCN=C(N)N)NCC(CCCCN)NC(=O)CNC(=O)C(CNCCN)CNCCN)C(=O)N[C@@H](CC(C)C)C(=O)O` (stereo partly drawn) [DEMOTENSIN 2] (H-[X3]([Gly-X2])PYIL-OH) has a pIC50 [2] of 9.74 and a pIC50 [1] of 9.39.
Work on `CC(C)C[C@H](NC(=O)[C@@H](NC(=O)[C@H](Cc1ccc(O)cc1)NC(=O)[C@@H]1CCCN1C(=O)[C@H](CCCN=C(N)N)NCC(CCCN=C(N)N)NC(=O)CNC(=O)C(CNCCN)CNCCN)C(C)(C)C)C(=O)O` (stereo partly drawn) [DEMOTENSIN 4] (H-[X1]([Gly-X2])PY[Tle]L-OH) yielded a pIC50 [2] of 9.29, a pIC50 [1] of 9.07 and a pIC50 [3] of 8.54.
